Consider 7 molecules from ChEMBL document CHEMBL3991948, “Rab7 GTPase inhibitors and related methods of treatment” (2014).

Active and inactive are the calls of the source. The rule behind the calls is not given here.

Series [1] has as its target T1, Integrin alpha-4/beta-1 (Homo sapiens) (UniProt P05556+P13612). Kind of series: Inhibition of FITC-LDV peptide binding to VLA4 in human U937 deltaST cells at 30 uM by FACScan flow cytometry. It is filed as cell-based. A general note: In flow cytometry, cells or beads pass a laser one at a time.
The nature of series [2]: Cytotoxicity against human U937 cells assessed as cell viability at 100 uM after 24 hrs by cell counting method (reference value: 94%). Conditions: read-out: Activity. It is filed as cell-based, U-937.
The target in series [3] is T1, Integrin alpha-4/beta-1 (Homo sapiens). The series is described as follows: Inhibition of FITC-LDV peptide binding to VLA4 in human U937 deltaST cells at 10 to 100 uM by FACScan flow cytometry. It is filed as cell-based.
The nature of series [4]: Chemical stability of the compound after 72 hrs in presence of 1 to 2.4 mg L-glutathione by LCMS analysis. It is filed as physicochemical.
In series [5] the target is Ras-related protein Rab-7a (Homo sapiens) (UniProt P51149). Kind of series: Displacement of BODIPY-GTP from nucleotide binding site of wild-type GST-tagged Rab7 GTPase (unknown origin) expressed in Escherichia coli BL21(DE3) in EDTA buffer assessed as residual activity after 2 hrs by flow cytometry.
The target is the same in series [6]. The series is described as follows: Displacement of BODIPY-GTP from nucleotide binding site of wild-type GST-tagged Rab7 GTPase (unknown origin) expressed in Escherichia coli BL21(DE3) after 2 hrs by flow cytometry relative to untreated control.
The target is the same in series [7]. The series is described as follows: Displacement of BODIPY-GTP from nucleotide binding site of wild-type GST-tagged Rab7 GTPase (unknown origin) expressed in Escherichia coli BL21(DE3) in Mg buffer assessed as residual activity after 2 hrs by flow cytometry.
Series [8] concerns the target T1, Integrin alpha-4/beta-1 (Homo sapiens). The series is described as follows: Inhibition of FITC-LDV peptide binding to VLA4 in human U937 deltaST cells at 10 to 50 uM by FACScan flow cytometry. It is filed as cell-based.

Ras-related protein Rab-7a (Homo sapiens), sequence (P51149 whole entry): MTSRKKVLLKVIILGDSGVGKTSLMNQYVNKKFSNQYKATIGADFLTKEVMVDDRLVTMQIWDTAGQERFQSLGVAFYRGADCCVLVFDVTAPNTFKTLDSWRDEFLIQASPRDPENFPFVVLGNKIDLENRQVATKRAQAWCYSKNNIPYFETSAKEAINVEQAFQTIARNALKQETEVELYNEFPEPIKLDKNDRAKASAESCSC

In the case of `CC1(C)Cc2c(sc(NC(=O)NC(=O)c3ccccc3)c2C(=O)O)CO1`, the inhibition entry in series [1] was “Active”. The viability at 24 h, 100 µM in series [2] was found to be 98%.

Regarding `CC1(C)Cc2c(sc(NC(=S)NC(=O)c3ccccc3)c2C(=O)O)CO1`, in series [3], the inhibition result was “Active”. Moreover, the Stability entry in series [4] is “Stable”.

For the molecule `CC1(C)Cc2c(sc(NC(=S)NC(=O)c3ccc(F)cc3)c2C(=O)O)CO1`, in series [5], the Activity was determined as 100%.

Turning to `Nc1nc2c(ncn2[C@@H]2O[C@H](COP(=O)(O)OP(=O)(O)O)[C@@H](O)[C@H]2O)c(=O)[nH]1`, in series [6], the inhibition result is “Active”.

For `CC1Cc2c(sc(NC(=S)NC(=O)c3ccccc3)c2C(=O)O)CO1` (centres undefined), the viability at 24 h, 100 µM in series [2] stood at 94%. The Activity in series [5] amounted to 91%; in series [7] it was 56%.

Regarding `Nc1nc2c(ncn2[C@@H]2O[C@H](COP(=O)(O)OP(=O)(O)OP(=O)(O)O)[C@@H](O)[C@H]2O)c(=O)[nH]1`, the inhibition entry in series [6] is “Active”.

Take `O=C(NC(=S)Nc1sc2c(c1C(=O)O)CCOC2)c1ccccc1`: in series [8], the inhibition entry was “Active”. Also, the viability at 24 h, 100 µM in series [2] turned out to be 92%. Further, the Activity in series [5] was determined as 91%; in series [7], 45%.
